The results in this text go back to patent US20120101100A1 (priority 2008, published 2012).

One may read the inhibition as the drop in the measured response relative to a control, in per cent.

Structures are written as SMILES.

S. aureus GyrB ATPase, sequence (P0A0K8 whole entry): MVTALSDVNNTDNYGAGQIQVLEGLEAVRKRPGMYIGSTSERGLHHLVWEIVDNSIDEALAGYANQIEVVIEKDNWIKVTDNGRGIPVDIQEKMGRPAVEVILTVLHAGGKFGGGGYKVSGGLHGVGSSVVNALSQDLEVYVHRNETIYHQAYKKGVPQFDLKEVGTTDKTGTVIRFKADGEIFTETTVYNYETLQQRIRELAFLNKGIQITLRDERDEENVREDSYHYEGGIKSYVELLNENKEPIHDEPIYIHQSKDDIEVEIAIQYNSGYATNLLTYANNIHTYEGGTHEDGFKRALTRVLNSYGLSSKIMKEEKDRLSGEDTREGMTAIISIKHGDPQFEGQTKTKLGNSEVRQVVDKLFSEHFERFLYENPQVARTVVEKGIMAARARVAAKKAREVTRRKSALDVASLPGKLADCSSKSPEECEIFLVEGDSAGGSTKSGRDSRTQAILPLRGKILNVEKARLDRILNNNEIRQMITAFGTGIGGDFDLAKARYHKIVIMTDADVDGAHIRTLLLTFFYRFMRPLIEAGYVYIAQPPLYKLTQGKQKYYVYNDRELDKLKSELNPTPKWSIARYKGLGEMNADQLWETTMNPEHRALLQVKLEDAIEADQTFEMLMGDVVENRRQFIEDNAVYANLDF
S. aureus GyrB ATPase, sequence (P0AES4 whole entry, further chain): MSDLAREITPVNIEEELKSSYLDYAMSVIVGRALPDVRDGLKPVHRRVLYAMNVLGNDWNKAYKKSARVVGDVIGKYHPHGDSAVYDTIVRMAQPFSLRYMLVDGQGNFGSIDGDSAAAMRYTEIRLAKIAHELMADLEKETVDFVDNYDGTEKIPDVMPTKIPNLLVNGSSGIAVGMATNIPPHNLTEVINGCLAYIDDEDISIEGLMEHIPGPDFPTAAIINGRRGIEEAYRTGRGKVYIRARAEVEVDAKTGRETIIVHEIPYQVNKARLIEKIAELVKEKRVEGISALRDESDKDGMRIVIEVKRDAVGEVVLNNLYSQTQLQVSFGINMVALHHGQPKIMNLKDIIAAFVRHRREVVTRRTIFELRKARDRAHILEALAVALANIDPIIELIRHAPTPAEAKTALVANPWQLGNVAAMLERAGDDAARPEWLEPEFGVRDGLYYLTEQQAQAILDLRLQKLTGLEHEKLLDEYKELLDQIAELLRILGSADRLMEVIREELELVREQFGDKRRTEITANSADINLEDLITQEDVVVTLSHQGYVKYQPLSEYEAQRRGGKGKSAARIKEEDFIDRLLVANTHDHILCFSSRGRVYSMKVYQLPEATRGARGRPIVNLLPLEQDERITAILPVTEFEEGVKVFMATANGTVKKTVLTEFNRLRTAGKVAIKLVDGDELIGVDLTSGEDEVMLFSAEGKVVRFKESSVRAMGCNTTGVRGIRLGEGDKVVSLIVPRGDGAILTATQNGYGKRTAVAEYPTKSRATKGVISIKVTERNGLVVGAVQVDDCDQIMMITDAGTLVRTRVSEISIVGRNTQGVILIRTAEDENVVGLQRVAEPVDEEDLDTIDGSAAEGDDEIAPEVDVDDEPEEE

For the experiment, the target named is S. aureus GyrB ATPase (Staphylococcus aureus, UniProt P0A0K8). In words: S. aureus (SAU) GyrB ATPase inhibition, malachite green phosphate detection (E. coli GyrA + S. aureus GyrB). In kind it is biochemical. The note with it: compound concentration of 1.0 μM unless otherwise noted; average value where assay was carried out more than once; read-out: S. aureus (SAU) GyrB ATPase % Inhibition. An outline of the steps:
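E. coli GyrA and S. aureus GyrB (1.25 nM each) with 500 μM ATP and 5 μg/ml sheared salmon sperm DNA in 50 mM Hepes pH 7.5, 8.0 mM MgCl2. Released phosphate detected with ammonium molybdate/malachite green at 650 nm; 2% DMSO as 0% and 2 μM novobiocin as 100% inhibition; IC50 from 10 concentrations.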
Regarding `CCNC(=O)Nc1cc(-c2nc(C(F)(F)F)cs2)c(-c2cc(-c3n[nH]c(=O)o3)cnc2OC[C@H](C)O)cn1` [Example 226], the inhibition at 1 µM was determined as 109%.

As to `CCNC(=O)Nc1cc(-c2nc(C(F)(F)F)cs2)c(-c2cc(-c3n[nH]c(=O)o3)cnc2OC2C[C@H]3CC[C@@H](C2)N3C)cn1` (some centres unmarked) [Example 227], the inhibition at 1 µM worked out at 100%.

`CCNC(=O)Nc1cc(-c2nc(C(F)(F)F)cs2)c(-c2ccnc(-c3nnc(C)o3)c2)cn1` [Example 228]: the inhibition at 1 µM was determined as 93%.

For the molecule `CCNC(=O)Nc1cc(-c2nnc(-c3ccccc3)o2)c(-c2ccnc(-c3nnc(C)o3)c2)cn1` [Example 229], the inhibition at 1 µM is 99%.

As to `CCNC(=O)Nc1cc(-c2nnc(-c3ccccc3)o2)c(-c2ncc(-c3nnc(C)o3)s2)cn1` [Example 230], the inhibition at 1 µM was 91%.

Consider `CCNC(=O)Nc1cc(-c2nc(-c3cnn(C)c3)cs2)c(-c2cc(-c3nnc(C)o3)cnc2OC2CCOCC2)cn1` [Example 231, 1-ethyl-3-(5′-(5-methyl-1,3,4-oxadiazol-2-yl)-4-(4-(1-methyl-1H-pyrazol-4-yl)thiazol-2-yl)-2′-(tetrahydro-2H-pyran-4-yloxy)-3,3′-bipyridin-6-yl)urea], for which the inhibition at 1 µM was determined as 96%.

Turning to `CCNC(=O)Nc1cc(-c2nc(-c3cccnc3OCCOC)cs2)c(-c2cc(-c3nnc(C)o3)cnc2OC2CCOCC2)cn1` [Example 232, 1-ethyl-3-(4-(4-(2-(2-methoxyethoxy)pyridin-3-yl)thiazol-2-yl)-5′-(5-methyl-1,3,4-oxadiazol-2-yl)-2′-(tetrahydro-2H-pyran-4-yloxy)-3,3′-bipyridin-6-yl)urea], the inhibition at 1 µM is 99%.

On to `CCNC(=O)Nc1cc(-c2nc(-c3cnn(C)c3)cs2)c(-c2cncc(-c3nnc(C)o3)c2)cn1` [Example 233, 1-ethyl-3-(5′-(5-methyl-1,3,4-oxadiazol-2-yl)-4-(4-(1-methyl-1H-pyrazol-4-yl)thiazol-2-yl)-3,3′-bipyridin-6-yl)urea], for which the inhibition at 1 µM was 100%.

On to `CCNC(=O)Nc1cc(-c2nc(C(F)(F)F)cs2)c(-c2cc(-c3nnc(C)o3)cnc2OCC2CC2)cn1` [Example 234, 1-(2′-(cyclopropylmethoxy)-5′-(5-methyl-1,3,4-oxadiazol-2-yl)-4-(4-(trifluoromethyl)thiazol-2-yl)-3,3′-bipyridin-6-yl)-3-ethylurea], for which the inhibition at 1 µM was 105%.

Take `CCNC(=O)Nc1cc(-c2nc(C3CCCC3)cs2)c(-c2cncc(-c3nnc(C)o3)c2)cn1` [Example 235, 1-(4-(4-cyclopentylthiazol-2-yl)-5′-(5-methyl-1,3,4-oxadiazol-2-yl)-3,3′-bipyridin-6-yl)-3-ethylurea]: the inhibition at 1 µM turned out to be 101%.

Turning to `CCNC(=O)Nc1cc(-c2nc(C3CCCCC3)cs2)c(-c2cncc(-c3nnc(C)o3)c2)cn1` [Example 236, 1-(4-(4-cyclohexylthiazol-2-yl)-5′-(5-methyl-1,3,4-oxadiazol-2-yl)-3,3′-bipyridin-6-yl)-3-ethylurea], the inhibition at 1 µM amounted to 109%.

As to `CCNC(=O)Nc1cc(-c2nc(C(F)(F)F)cs2)c(-c2cncc(-c3nnc([C@H](C)O)o3)c2)cn1` [Example 237, (S)-1-ethyl-3-(5′-(5-(1-hydroxyethyl)-1,3,4-oxadiazol-2-yl)-4-(4-(trifluoromethyl)thiazol-2-yl)-3,3′-bipyridin-6-yl)urea], the inhibition at 1 µM was 110%.

Take `CCNC(=O)Nc1cc(-c2nc(C(F)(F)F)cs2)c(-c2cncc(-c3nnc([C@@H](N)C4CCCCC4)o3)c2)cn1` [Example 238, (S)-1-(5′-(5-(amino(cyclohexyl)methyl)-1,3,4-oxadiazol-2-yl)-4-(4-(trifluoromethyl)thiazol-2-yl)-3,3′-bipyridin-6-yl)-3-ethylurea]: the inhibition at 1 µM worked out at 96%.

With `CCNC(=O)Nc1cc(-c2nc(C(F)(F)F)cs2)c(-c2cncc(-c3nnc([C@@H]4COCCN4)o3)c2)cn1` [Example 239, (S)-1-ethyl-3-(5′-(5-(morpholin-3-yl)-1,3,4-oxadiazol-2-yl)-4-(4-(trifluoromethyl)thiazol-2-yl)-3,3′-bipyridin-6-yl)urea], the inhibition at 1 µM stood at 94%.
